Laboratory results reported in patent publication US20080213376A1, “Medicament that is Intended for Oral Administration, Comprising a Cyclooxygenase-2 Inhibitor, and Preparation Method Thereof” (VETOQUINOL, priority 2005, published 2008).
Converted amounts (≈) assume the structure as drawn.

Assay: Solubility by HPLC in approximately 0.1N HCl medium
Format: physicochemical
Settings: simulated gastric fluid, thermodynamic from solid, HPLC technique
Description: By way of indication, the solubility S0 of the cimicoxib powder alone and the solubility S2 of the particle agglomerate according to this second example of the invention were measured by the HPLC (high performance liquid chromatography) technique and in an approximately 0.1N HCl medium, with the following results (solubilities in milligrams/liter):
By way of indication, the solubility S5 of this particle agglomerate according to this fifth example of the invention was compared to the solubility S0 of the cimicoxib powder alone by the HPLC technique and in an approximately 0.1N HCl medium, with the following results (milligrams/liter): […]

In the case of `COc1ccc(-c2c(Cl)ncn2-c2ccc(S(N)(=O)=O)cc2)cc1F` [cimicoxib powder alone, cimicoxib], the solubility is reported as 3.1 µg/mL (≈ 8.12 µM).
